Laboratory results reported in publication PMC6874179, “Development of Macrocycle Kinase Inhibitors for ALK2 Using Fibrodysplasia Ossificans Progressiva‐Derived Endothelial Cells” (JBMR Plus, 2019).

Legend:
ALK_F1174S = target: T1, ALK_F1174S (Homo sapiens, UniProt Q9UM73, F1174S); experiment: Proqinase Kinase profiling; type: biochemical; settings: read-out: % inhibition at 100nM
T1 construct: purchased DiscoverX

PAK1 = target: T2, PAK1 (Homo sapiens, UniProt Q13153); experiment: Proqinase Kinase profiling; type: biochemical; settings: read-out: % inhibition at 100nM
T2 construct: purchased DiscoverX

CLK4 = target: T3, CLK4 (Homo sapiens, UniProt Q9HAZ1); experiment: Proqinase Kinase profiling; type: biochemical; settings: read-out: % inhibition at 100nM
T3 construct: purchased DiscoverX

MET = target: T4, MET (Homo sapiens, UniProt P08581); experiment: Proqinase Kinase profiling; type: biochemical; settings: read-out: % inhibition at 100nM
T4 construct: purchased DiscoverX

SRPK2 = target: T5, SRPK2 (Homo sapiens, UniProt P78362); experiment: Proqinase Kinase profiling; type: biochemical; settings: read-out: % inhibition at 100nM
T5 construct: purchased DiscoverX

PRKD2 = target: T6, PRKD2 (Homo sapiens, UniProt Q9BZL6); experiment: Proqinase Kinase profiling; type: biochemical; settings: read-out: % inhibition at 100nM
T6 construct: purchased DiscoverX
T6 sequence (Q9BZL6 whole entry): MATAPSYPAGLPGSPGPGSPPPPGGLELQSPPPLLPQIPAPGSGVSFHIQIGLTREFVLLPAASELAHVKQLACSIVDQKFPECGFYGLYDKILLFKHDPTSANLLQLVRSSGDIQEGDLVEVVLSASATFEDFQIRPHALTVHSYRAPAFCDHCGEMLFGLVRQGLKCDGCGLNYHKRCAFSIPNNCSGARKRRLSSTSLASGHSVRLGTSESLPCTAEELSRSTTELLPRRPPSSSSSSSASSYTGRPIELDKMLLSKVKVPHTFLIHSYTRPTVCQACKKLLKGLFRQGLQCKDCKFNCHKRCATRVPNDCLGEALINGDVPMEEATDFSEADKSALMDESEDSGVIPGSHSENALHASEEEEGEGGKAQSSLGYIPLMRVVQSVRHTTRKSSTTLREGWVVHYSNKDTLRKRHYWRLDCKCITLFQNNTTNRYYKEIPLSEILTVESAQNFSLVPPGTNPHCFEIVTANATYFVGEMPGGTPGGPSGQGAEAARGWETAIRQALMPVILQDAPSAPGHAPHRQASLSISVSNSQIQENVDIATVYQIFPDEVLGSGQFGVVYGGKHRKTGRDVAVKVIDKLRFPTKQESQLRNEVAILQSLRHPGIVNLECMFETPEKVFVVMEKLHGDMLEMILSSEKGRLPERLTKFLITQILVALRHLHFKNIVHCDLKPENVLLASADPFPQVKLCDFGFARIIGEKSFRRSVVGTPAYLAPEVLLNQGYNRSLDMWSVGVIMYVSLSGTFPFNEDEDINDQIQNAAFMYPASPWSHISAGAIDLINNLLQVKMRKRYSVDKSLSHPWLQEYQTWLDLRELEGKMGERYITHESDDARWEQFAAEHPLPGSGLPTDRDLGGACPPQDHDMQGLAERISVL

ABL1_Q252H = target: T7, ABL1_Q252H (Homo sapiens, UniProt P00519, Q252H); experiment: Proqinase Kinase profiling; type: biochemical; settings: read-out: % inhibition at 100nM
T7 construct: purchased DiscoverX

ABL1_M351T = target: T8, ABL1_M351T (Homo sapiens, UniProt P00519, M351T); experiment: Proqinase Kinase profiling; type: biochemical; settings: read-out: % inhibition at 100nM
T8 construct: purchased DiscoverX

RPS6KB1 = target: T9, RPS6KB1 (Homo sapiens, UniProt P23443); experiment: Proqinase Kinase profiling; type: biochemical; settings: read-out: % inhibition at 100nM
T9 construct: purchased DiscoverX

ERBB2 = target: T10, ERBB2 (Homo sapiens, UniProt P04626); experiment: Proqinase Kinase profiling; type: biochemical; settings: read-out: % inhibition at 100nM
T10 construct: purchased DiscoverX
T10 sequence (P04626 23-1255): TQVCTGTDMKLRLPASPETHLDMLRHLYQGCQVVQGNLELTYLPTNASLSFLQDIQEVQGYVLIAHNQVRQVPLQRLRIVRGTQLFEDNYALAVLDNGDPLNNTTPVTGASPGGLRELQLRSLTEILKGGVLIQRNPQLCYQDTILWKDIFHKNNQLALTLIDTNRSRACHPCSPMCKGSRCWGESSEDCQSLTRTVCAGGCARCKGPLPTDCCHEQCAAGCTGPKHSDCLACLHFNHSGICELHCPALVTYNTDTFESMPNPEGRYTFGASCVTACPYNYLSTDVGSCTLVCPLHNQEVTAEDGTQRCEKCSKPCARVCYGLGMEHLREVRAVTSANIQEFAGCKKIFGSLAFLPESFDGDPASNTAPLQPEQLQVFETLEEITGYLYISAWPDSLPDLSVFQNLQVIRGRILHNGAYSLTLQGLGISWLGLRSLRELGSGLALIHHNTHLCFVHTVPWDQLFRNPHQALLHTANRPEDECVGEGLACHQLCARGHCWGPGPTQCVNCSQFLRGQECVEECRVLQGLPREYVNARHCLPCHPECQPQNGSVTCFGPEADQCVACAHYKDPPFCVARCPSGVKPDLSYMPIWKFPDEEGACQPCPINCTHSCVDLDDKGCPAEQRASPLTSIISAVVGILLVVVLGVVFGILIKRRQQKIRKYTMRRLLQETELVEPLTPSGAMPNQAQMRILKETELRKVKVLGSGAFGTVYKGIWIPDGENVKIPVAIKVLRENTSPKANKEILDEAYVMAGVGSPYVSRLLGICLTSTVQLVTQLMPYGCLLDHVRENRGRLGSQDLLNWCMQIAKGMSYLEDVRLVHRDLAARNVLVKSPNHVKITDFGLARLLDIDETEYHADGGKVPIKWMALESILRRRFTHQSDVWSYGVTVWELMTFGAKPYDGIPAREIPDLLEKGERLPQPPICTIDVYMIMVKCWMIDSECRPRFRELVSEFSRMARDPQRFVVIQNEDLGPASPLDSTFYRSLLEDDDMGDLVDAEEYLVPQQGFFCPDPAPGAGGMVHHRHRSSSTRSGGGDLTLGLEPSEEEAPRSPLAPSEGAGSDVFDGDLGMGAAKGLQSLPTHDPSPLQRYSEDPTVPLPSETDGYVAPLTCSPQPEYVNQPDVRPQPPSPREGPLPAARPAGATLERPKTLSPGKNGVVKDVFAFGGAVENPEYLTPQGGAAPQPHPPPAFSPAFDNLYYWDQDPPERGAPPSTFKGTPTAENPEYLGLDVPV

DNAPK = target: T11, DNAPK (Homo sapiens, UniProt P78527); experiment: Proqinase Kinase profiling; type: biochemical; settings: read-out: % inhibition at 100nM
T11 construct: purchased DiscoverX

ALK2 = target: T12, ALK2 (Homo sapiens, UniProt Q04771); experiment: DiscoverX Kd determination; type: binding
T12 construct: T7 phage fusion (or DNA tag for qPCR if made in HEK-293); purchased DiscoverX; host or cells: E. coli (T7 phage) or HEK-293
Experimental: (§1) DiscoverX Kd determination: For most assays, kinase-tagged T7 phage strains were prepared in an E. coli host derived from the BL21 strain. E. coli were grown to log-phase and infected with T7 phage and incubated with shaking at 32°C until lysis. The lysates were centrifuged and filtered to remove cell debris. The remaining kinases were produced in HEK-293 cells and subsequently tagged with DNA for qPCR detection. […] The liganded beads were blocked with excess biotin and washed with blocking buffer (SeaBlock (Pierce), 1% BSA, 0.05% Tween 20, 1 mM DTT) to remove unbound ligand and to reduce non-specific binding. […] Kds were determined using an 11-point 3-fold compound dilution series with three DMSO control points. […] The compounds were then diluted directly into the assays such that the final concentration of DMSO was 0.9%. All reactions performed in polypropylene 384-well plate. Each was a final volume of 0.02 ml. […] The kinase concentration in the eluates was measured by qPCR. An 11-point 3-fold serial dilution of each test compound was prepared in 100% DMSO at 100x final test concentration and subsequently diluted to 1x in the assay (final DMSO concentration = 1%). Most Kds were determined using a compound top concentration = 30.000 nM. […] Binding constants (Kds) were calculated with a standard dose-response curve using the Hill equation: Response = Background + Signal – Background 1 + (KdHill Slope / DoseHill Slope). The Hill Slope was set to -1. Curves were fitted using a non-linear least square fit with the Levenberg-Marquardt algorithm.

ALK3 = target: T13, ALK3 (Homo sapiens, UniProt P36894); experiment: DiscoverX Kd determination; type: binding
T13 construct: T7 phage fusion (or DNA tag for qPCR if made in HEK-293); purchased DiscoverX; host or cells: E. coli (T7 phage) or HEK-293
T13 sequence (P36894 24-532): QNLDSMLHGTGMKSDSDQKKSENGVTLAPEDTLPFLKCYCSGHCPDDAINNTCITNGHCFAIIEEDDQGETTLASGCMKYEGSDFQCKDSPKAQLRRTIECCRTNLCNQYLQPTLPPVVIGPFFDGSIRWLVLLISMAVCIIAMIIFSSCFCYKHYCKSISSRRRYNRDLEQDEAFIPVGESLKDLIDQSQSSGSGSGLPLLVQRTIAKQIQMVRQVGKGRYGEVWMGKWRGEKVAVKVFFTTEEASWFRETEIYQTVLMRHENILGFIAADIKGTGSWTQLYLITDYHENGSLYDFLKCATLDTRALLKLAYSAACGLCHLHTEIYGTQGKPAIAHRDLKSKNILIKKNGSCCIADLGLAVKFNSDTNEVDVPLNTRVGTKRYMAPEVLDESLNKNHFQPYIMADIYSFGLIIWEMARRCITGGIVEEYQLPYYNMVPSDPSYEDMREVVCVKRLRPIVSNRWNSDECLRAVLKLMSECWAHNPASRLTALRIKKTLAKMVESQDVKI
Experimental: as §1

ALK5 = target: T14, ALK5 (Homo sapiens, UniProt P36897); experiment: DiscoverX Kd determination; type: binding
T14 construct: T7 phage fusion (or DNA tag for qPCR if made in HEK-293); purchased DiscoverX; host or cells: E. coli (T7 phage) or HEK-293
T14 sequence (P36897 34-503): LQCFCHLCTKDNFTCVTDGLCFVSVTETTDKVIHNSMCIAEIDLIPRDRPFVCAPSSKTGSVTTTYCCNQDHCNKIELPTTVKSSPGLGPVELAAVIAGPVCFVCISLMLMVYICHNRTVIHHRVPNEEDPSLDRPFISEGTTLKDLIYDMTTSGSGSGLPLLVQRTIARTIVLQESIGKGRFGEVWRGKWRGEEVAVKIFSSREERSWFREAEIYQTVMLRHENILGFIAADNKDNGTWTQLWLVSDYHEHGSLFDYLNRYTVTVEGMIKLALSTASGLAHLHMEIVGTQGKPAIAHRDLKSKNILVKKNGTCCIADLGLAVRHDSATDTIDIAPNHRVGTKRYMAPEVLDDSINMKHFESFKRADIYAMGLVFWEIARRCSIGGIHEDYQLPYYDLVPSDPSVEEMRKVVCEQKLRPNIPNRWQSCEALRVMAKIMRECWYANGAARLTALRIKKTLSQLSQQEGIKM
Experimental: as §1

ALK1 = target: T15, ALK1 (Homo sapiens, UniProt P37023); experiment: DiscoverX Kd determination; type: binding
T15 construct: T7 phage fusion (or DNA tag for qPCR if made in HEK-293); purchased DiscoverX; host or cells: E. coli (T7 phage) or HEK-293
Experimental: as §1

ALK4 = target: T16, ALK4 (Homo sapiens, UniProt P36896); experiment: DiscoverX Kd determination; type: binding
T16 construct: T7 phage fusion (or DNA tag for qPCR if made in HEK-293); purchased DiscoverX; host or cells: E. coli (T7 phage) or HEK-293
T16 sequence (P36896 24-505): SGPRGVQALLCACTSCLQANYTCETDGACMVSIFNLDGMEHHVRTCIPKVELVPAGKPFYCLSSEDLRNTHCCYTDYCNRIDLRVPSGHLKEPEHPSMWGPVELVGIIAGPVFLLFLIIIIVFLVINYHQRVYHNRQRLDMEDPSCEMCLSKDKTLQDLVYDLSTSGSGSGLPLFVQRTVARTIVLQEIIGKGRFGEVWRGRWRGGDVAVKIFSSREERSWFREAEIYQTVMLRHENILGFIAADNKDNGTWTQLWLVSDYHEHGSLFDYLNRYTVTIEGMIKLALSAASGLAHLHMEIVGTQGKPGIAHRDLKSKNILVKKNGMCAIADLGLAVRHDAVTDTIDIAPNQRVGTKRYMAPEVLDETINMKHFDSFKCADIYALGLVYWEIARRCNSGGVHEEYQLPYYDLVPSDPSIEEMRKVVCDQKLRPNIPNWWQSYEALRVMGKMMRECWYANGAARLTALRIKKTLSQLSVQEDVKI
Experimental: as §1

CDK8_cyclinC = target: T17, CDK8_cyclinC (Homo sapiens, UniProt P49336); experiment: Proqinase Kinase profiling; type: biochemical; settings: read-out: % inhibition at 100nM
T17 construct: purchased DiscoverX

MYLK = target: T18, MYLK (Homo sapiens, UniProt Q15746); experiment: Proqinase Kinase profiling; type: biochemical; settings: read-out: % inhibition at 100nM
T18 construct: purchased DiscoverX

RAF1 = target: T19, RAF1 (Homo sapiens, UniProt P04049); experiment: Proqinase Kinase profiling; type: biochemical; settings: read-out: % inhibition at 100nM
T19 construct: purchased DiscoverX

DYRK2 = target: T20, DYRK2 (Homo sapiens, UniProt Q92630); experiment: Proqinase Kinase profiling; type: biochemical; settings: read-out: % inhibition at 100nM
T20 construct: purchased DiscoverX

CAMK2D = target: T21, CAMK2D (Homo sapiens, UniProt Q13557); experiment: Proqinase Kinase profiling; type: biochemical; settings: read-out: % inhibition at 100nM
T21 construct: purchased DiscoverX

PDK1 = target: T22, PDK1 (Homo sapiens, UniProt O15530); experiment: Proqinase Kinase profiling; type: biochemical; settings: read-out: % inhibition at 100nM
T22 construct: purchased DiscoverX

PAK3 = target: T23, PAK3 (Homo sapiens, UniProt O75914); experiment: Proqinase Kinase profiling; type: biochemical; settings: read-out: % inhibition at 100nM
T23 construct: purchased DiscoverX
T23 sequence (O75914 whole entry): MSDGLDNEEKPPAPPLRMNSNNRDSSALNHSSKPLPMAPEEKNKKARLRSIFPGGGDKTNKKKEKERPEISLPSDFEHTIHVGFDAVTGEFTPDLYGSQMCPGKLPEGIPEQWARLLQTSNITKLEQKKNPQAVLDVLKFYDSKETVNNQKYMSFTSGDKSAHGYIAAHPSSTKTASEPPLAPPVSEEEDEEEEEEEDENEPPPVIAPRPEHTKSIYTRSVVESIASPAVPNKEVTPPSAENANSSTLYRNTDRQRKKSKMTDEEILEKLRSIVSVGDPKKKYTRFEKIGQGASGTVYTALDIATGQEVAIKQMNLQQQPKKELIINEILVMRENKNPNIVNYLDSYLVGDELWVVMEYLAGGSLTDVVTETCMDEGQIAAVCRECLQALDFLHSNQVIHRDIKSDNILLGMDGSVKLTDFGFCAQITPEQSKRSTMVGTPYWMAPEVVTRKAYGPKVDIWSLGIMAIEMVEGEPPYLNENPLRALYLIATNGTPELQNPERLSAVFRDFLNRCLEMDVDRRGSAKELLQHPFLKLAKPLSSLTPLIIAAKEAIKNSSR

EEF2K = target: T24, EEF2K (Homo sapiens, UniProt O00418); experiment: Proqinase Kinase profiling; type: biochemical; settings: read-out: % inhibition at 100nM
T24 construct: purchased DiscoverX

MARK2 = target: T25, MARK2 (Homo sapiens, UniProt Q7KZI7); experiment: Proqinase Kinase profiling; type: biochemical; settings: read-out: % inhibition at 100nM
T25 construct: purchased DiscoverX

AKT1 = target: T26, AKT1 (Homo sapiens, UniProt P31749); experiment: Proqinase Kinase profiling; type: biochemical; settings: read-out: % inhibition at 100nM
T26 construct: purchased DiscoverX
T26 sequence (P31749 whole entry): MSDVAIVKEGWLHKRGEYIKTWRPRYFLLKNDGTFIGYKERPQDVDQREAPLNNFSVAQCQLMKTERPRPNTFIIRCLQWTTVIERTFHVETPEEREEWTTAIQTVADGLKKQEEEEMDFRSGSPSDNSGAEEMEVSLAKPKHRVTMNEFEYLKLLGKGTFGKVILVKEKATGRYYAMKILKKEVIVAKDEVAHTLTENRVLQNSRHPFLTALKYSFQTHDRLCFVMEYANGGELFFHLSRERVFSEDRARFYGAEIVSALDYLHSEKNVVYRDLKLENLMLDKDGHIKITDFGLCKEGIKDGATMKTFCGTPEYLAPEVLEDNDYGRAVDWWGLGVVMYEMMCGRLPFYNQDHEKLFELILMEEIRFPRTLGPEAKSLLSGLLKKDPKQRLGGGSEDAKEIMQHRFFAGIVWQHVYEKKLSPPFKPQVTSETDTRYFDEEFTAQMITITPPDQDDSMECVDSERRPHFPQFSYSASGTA

DYRK1A = target: T27, DYRK1A (Homo sapiens, UniProt Q13627); experiment: Proqinase Kinase profiling; type: biochemical; settings: read-out: % inhibition at 100nM
T27 construct: purchased DiscoverX

MAPKAPK3 = target: T28, MAPKAPK3 (Homo sapiens, UniProt Q16644); experiment: Proqinase Kinase profiling; type: biochemical; settings: read-out: % inhibition at 100nM
T28 construct: purchased DiscoverX
T28 sequence (Q16644 whole entry): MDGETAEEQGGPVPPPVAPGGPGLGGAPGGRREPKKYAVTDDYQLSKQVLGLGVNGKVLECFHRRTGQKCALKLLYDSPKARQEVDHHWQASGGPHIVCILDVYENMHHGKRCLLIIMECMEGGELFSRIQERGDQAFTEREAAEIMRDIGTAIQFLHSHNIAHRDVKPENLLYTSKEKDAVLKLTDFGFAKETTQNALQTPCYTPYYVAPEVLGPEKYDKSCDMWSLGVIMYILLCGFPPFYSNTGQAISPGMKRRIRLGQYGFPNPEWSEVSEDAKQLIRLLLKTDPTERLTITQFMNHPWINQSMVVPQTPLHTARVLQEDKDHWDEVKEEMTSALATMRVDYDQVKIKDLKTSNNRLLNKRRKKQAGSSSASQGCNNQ

MATK = target: T29, MATK (Homo sapiens, UniProt P42679); experiment: Proqinase Kinase profiling; type: biochemical; settings: read-out: % inhibition at 100nM
T29 construct: purchased DiscoverX

WNK3 = target: T30, WNK3 (Homo sapiens, UniProt Q9BYP7); experiment: Proqinase Kinase profiling; type: biochemical; settings: read-out: % inhibition at 100nM
T30 construct: purchased DiscoverX

TSSK2 = target: T31, TSSK2 (Homo sapiens, UniProt Q96PF2); experiment: Proqinase Kinase profiling; type: biochemical; settings: read-out: % inhibition at 100nM
T31 construct: purchased DiscoverX

TAOK3 = target: T32, TAOK3 (Homo sapiens, UniProt Q9H2K8); experiment: Proqinase Kinase profiling; type: biochemical; settings: read-out: % inhibition at 100nM
T32 construct: purchased DiscoverX

EPHB3 = target: T33, EPHB3 (Homo sapiens, UniProt P54753); experiment: Proqinase Kinase profiling; type: biochemical; settings: read-out: % inhibition at 100nM
T33 construct: purchased DiscoverX

GCK = target: T34, GCK (Homo sapiens, UniProt Q12851); experiment: Proqinase Kinase profiling; type: biochemical; settings: read-out: % inhibition at 100nM
T34 construct: purchased DiscoverX

Compound	inhibition at 0.1 µM (ALK_F1174S) [%]	inhibition at 0.1 µM (PAK1) [%]	inhibition at 0.1 µM (CLK4) [%]	inhibition at 0.1 µM (MET) [%]	inhibition at 0.1 µM (SRPK2) [%]	inhibition at 0.1 µM (PRKD2) [%]	inhibition at 0.1 µM (ABL1_Q252H) [%]	inhibition at 0.1 µM (ABL1_M351T) [%]	inhibition at 0.1 µM (RPS6KB1) [%]	inhibition at 0.1 µM (ERBB2) [%]	inhibition at 0.1 µM (DNAPK) [%]	Kd (ALK2) [nM]	Kd (ALK3) [nM]	Kd (ALK5) [nM]	Kd (ALK1) [nM]	Kd (ALK4) [nM]	inhibition at 0.1 µM (CDK8_cyclinC) [%]	inhibition at 0.1 µM (MYLK) [%]	inhibition at 0.1 µM (RAF1) [%]	inhibition at 0.1 µM (DYRK2) [%]	other results
Clc1cc2cc(c1)-c1cnn3ccc(nc13)NCCOCCO2 [OD36]	13	18	22	3	-2	9	33	16	-9	0	13	37	3000	3000	90	3000	57	12	2	2	inhibition at 0.1 µM (CAMK2D): 6%; inhibition at 0.1 µM (PDK1): 4%; inhibition at 0.1 µM (PAK3): 1%; inhibition at 0.1 µM (EEF2K): -9%; inhibition at 0.1 µM (MARK2): 11%; inhibition at 0.1 µM (AKT1): 4%; inhibition at 0.1 µM (DYRK1A): 7%; inhibition at 0.1 µM (MAPKAPK3): -1%; inhibition at 0.1 µM (MATK): 9%; inhibition at 0.1 µM (WNK3): 5%; inhibition at 0.1 µM (TSSK2): -6%; inhibition at 0.1 µM (TAOK3): 10%; inhibition at 0.1 µM (EPHB3): 1%; inhibition at 0.1 µM (GCK): 35%
Cc1cc2cc(c1)-c1cnn3ccc(nc13)NCCNC(=O)CCN(C)C2 [OD52]	-18	-1	4	-5	-16	4	1	-7	-2	-44	4	9.6	1300	850	13	260	44	11	-1	9	inhibition at 0.1 µM (CAMK2D): -9%; inhibition at 0.1 µM (PDK1): -7%; inhibition at 0.1 µM (PAK3): -15%; inhibition at 0.1 µM (EEF2K): -13%; inhibition at 0.1 µM (MARK2): -9%; inhibition at 0.1 µM (AKT1): -4%; inhibition at 0.1 µM (DYRK1A): -4%; inhibition at 0.1 µM (MAPKAPK3): -25%; inhibition at 0.1 µM (MATK): -9%; inhibition at 0.1 µM (WNK3): -4%; inhibition at 0.1 µM (TSSK2): 11%; inhibition at 0.1 µM (TAOK3): -1%; inhibition at 0.1 µM (EPHB3): -8%; inhibition at 0.1 µM (GCK): 1%
